For the test, the target named is T1, Seed linoleate 13S-lipoxygenase-1 (Glycine max, UniProt P08170).
T1 sequence (P08170 whole entry): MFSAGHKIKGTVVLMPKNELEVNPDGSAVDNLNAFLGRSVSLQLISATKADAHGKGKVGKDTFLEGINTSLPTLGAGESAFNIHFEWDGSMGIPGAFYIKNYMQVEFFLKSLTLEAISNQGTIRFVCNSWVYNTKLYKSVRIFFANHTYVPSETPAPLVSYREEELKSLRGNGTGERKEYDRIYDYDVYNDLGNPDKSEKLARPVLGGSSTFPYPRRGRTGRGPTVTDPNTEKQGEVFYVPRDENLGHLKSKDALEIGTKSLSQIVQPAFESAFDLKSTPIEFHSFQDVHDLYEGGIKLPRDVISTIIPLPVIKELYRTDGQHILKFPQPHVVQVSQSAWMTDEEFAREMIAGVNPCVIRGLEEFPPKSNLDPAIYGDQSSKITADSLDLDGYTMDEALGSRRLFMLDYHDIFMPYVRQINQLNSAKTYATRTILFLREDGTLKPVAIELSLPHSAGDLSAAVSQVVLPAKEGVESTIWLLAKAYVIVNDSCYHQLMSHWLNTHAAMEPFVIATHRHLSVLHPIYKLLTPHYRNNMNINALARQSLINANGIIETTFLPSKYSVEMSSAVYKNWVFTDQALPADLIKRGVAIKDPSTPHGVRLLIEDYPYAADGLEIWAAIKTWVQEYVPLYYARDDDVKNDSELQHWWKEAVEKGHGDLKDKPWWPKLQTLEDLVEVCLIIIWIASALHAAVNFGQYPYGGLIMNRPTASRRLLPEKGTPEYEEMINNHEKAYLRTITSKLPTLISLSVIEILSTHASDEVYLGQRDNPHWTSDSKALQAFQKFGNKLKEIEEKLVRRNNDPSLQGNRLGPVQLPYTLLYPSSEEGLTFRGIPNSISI
Description: In-vitro LOX Inhibition Assay. The note with it: pH 9; 25 °C. As for the experimental part: It is determined by kinetic mode of spectro-photometric determination method,which was performed by recording the rate of change in absorbance at 234 nm. It is based on the principle that the increase of absorbance at 234 nm due to formation of 9- and 13- hydroperoxides by LOX with substrate (linoleic acid). […] Briefly, the stock solution of lipoxygenase was prepared by dissolving 10,000 units/ml of Lipoxidase in 200 mM borate buffer, pH 9, and 5 uL of 80 mmol linoleic acid. Six different concentrations of inhibitors were selected, and made for determining the enzyme inhibition activity. Increasing concentrations of inhibitors were added to enzyme solution and kept for 5 min followed by substrate addition and kept at room temperature with stirring for 20 min.
As to `Cc1cc(=O)oc2cc(OCC(O)CNc3nc4ccc(Cl)cc4s3)ccc12` (stereo not given) [7-(3-(6-chlorobenzo[d]thiazol-2-ylamino)-2-hydroxypropoxy)-4-methyl-2H-chromen-2-one (33)], the half-inhibitory concentration (IC50) – broadly, the concentration that gives 50% inhibition – is 2.79 nM.
For `COc1ccc2nc(NCC(O)COc3ccc4c(C)cc(=O)oc4c3)sc2c1` (stereo not given) [7-(2-hydroxy-3-(6-methoxybenzo[d]thiazol-2-ylamino)propoxy)-4-methyl-2H-chromen-2-one (35)] the value was 2.12 nM.
In turn, `Cc1cc(=O)oc2cc(OCC(O)CNc3nc4ccc([N+](=O)[O-])cc4s3)ccc12` (stereo not given) [7-(2-hydroxy-3-(6-nitrobenzo[d]thiazol-2-ylamino)propoxy)-4-methyl-2H-chromen-2-one (31)] gave a 50% inhibitory concentration (IC50) of 3.24 nM.
For `Cc1cc(=O)oc2cc(OCC(O)CNc3nc4cc(Cl)c(Cl)cc4s3)ccc12` (stereo not given) [7-(3-(5,6-dichlorobenzo[d]thiazol-2-ylamino)-2-hydroxypropoxy)-4-methyl-2H-chromen-2-one (34)] the value was 15.5 nM; for `Cc1cc(=O)oc2cc(OCC(O)CNc3nc4cc(Cl)c(F)cc4s3)ccc12` (stereo not given) [7-(3-(5-chloro-6-fluorobenzo[d]thiazol-2-ylamino)-2-hydroxypropoxy)-4-methyl-2H-chromen-2-one (32)], 6.16 nM.

The values are drawn from BindingDB's records for doi:10.1016/j.bioorg.2016.06.004 (Nirma University, 2016).
